# Results as given in ChEMBL document CHEMBL1201862, “PubChem BioAssay data set” (2004).
# Active and inactive are the calls of the source.
# Experiments:
# [1] = target: Nuclear receptor subfamily 5 group A member 2 (Homo sapiens, UniProt O00482); type: functional, cell-based;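 further: HEK293T cells transfected with LRH-1 and a StAR promoter luciferase reporter; potency for inhibitors that lower LRH-1 driven reporter light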
# [2] = Trypanosoma cruzi growth suppression in host cells – NIH3T3 host cells, beta-gal luminescence, confirmation (AID 2044); type: functional, cell-based;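 further: intracellular parasites grown in NIH/3T3 mouse fibroblasts as host cells; luminescent beta-galactosidase reporter signal from transgenic T. cruzi replicating inside host cells; inhibitors lower the luminescence signal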
# cells [3] = experiment: cells
# [4] = nonselective StAR promoter luciferase inhibitors – cell-based, luminescence, luciferase reporter, counter-screen for LRH-1 inverse agonist project, dose response (AID 651969); type: functional
# [5] = NIH3T3 cell viability loss – ATP luminescence, mouse fibroblasts, counter-screen, dose response (AID 2010); type: functional, cell-based;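 further: cells exposed to compound for about 90 hours before reading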
# Steroidogenic factor 1 = Steroidogenic factor 1 (Homo sapiens, UniProt Q13285); experiment: Counterscreen for inverse agonists of the liver receptor homolog-1 (LRH-1; NR5A2): Luminescence-based cell-based high throughput dose response assay to identify inverse agonists of the Steroidogenic Factor 1 Nuclear Receptor (SF1; NR5A1).; type: functional
# [6] = Luminescence Cell-Based Dose Confirmation HTS to Identify Inhibitors of Platelet Dense Granule Release. [Related pubchem assays: 1663 (Primary HTS), 1678 (Summary of Project)]; type: functional
# Streptococcus = experiment: GAS UMAA2166 growth inhibition – luminescence, BacTiterGlo, counter-screen for streptokinase expression inhibitor project, dose response (AID 1915); type: functional, organism-based;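 further: potency for reduction of bacterial viability or growth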
# [7] = viability loss in human Jurkat cells – cell-based, luminescence, cytotoxicity control for P. falciparum gametocyte viability project, dose response (AID 1117277); type: functional;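 further: potency reflects loss of cellular ATP meaning fewer viable cells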
# [8] = viability inhibitors of stage V gametocytes – luminescence, dose response (AID 1117278); type: functional, cell-based;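 further: gametocytes exposed to compound for 24 hours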
# [9] = system: Streptococcus sp. 'group A'; experiment: Streptococcus pyogenes SK(-)GAS viability under kanamycin – luminescence, BacTiterGlo, confirmation, counter-screen for streptokinase expression inhibitor project, dose response (AID 1900); type: functional, organism-based
# [10] = target: Luciferin 4-monooxygenase (Photinus pyralis, UniProt P08659); experiment: inhibition of purified Photinus pyralis luciferase – biochemical, luminescence, dose response (AID 1891)
# Galanin receptor type 3 = target: T1, Galanin receptor type 3 (Homo sapiens, UniProt O60755); experiment: Fluorescence-based cell-based primary high throughput dose response assay to identify antagonists of the Galanin Receptor 3 (GalR3).; type: functional
# T1 sequence (O60755 whole entry): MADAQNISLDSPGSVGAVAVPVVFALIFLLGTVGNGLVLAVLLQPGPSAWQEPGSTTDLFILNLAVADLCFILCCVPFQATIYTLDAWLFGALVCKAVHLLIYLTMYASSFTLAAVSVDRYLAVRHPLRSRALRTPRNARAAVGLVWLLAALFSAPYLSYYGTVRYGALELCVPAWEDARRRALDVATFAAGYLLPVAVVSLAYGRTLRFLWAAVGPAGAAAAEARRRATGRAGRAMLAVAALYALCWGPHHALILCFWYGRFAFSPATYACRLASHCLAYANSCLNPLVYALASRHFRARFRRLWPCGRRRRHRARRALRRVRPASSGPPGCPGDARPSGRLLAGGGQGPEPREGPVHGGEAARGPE
# [11] = non-specific 3'UTR reporter inhibition in Clone20-Shn3RL – cell-based, Renilla luciferase, cherry-picked, counter-screen for Shn3 inhibitor project, dose response (AID 624133); type: functional
# [12] = reduction of Shn3 3'UTR-driven luciferase in osteoblasts – cell-based, Clone20 osteoblasts, firefly luciferase, cherry-picked, dose response (AID 624132); type: functional;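 further: firefly luciferase luminescence from reporter carrying the Shn3 3'UTR in osteoblasts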
# cells [13] = type: functional, cell-based; settings: HEK-CNG
# [14] = target: T2, COUP transcription factor 2 (Homo sapiens, UniProt P24468); experiment: Luminescence-based cell-based high throughput dose response assay to identify inhibitors of COUP-TFII (NR2F2).; type: functional;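 further: HEK293 cells transiently cotransfected with COUP-TFII expression vector and reporter; luciferase reporter luminescence driven by COUP-TFII from the pX2-168 reporter plasmid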
# T2 sequence (P24468 whole entry): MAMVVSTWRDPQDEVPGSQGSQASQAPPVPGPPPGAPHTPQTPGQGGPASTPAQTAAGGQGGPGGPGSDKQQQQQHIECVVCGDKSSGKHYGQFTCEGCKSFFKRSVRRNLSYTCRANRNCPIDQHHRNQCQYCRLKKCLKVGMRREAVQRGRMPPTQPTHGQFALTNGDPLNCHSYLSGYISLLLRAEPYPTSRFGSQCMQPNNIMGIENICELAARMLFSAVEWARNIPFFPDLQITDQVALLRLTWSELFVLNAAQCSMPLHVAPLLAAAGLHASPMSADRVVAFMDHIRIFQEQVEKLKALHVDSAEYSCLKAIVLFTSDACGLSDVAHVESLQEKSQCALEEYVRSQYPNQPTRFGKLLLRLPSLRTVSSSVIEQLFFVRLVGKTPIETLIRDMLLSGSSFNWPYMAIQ
# [15] = loss of viability in HepG2 cells – cell-based, CellTiter-Glo, cherry-picked, cytotoxicity control for Shn3 inhibitor project, dose response (AID 624134); type: functional
# Prothrombin = Prothrombin (Homo sapiens, UniProt P00734); experiment: Thrombin 1536 HTS Dose Response Confirmation. [Related pubchem assays: 1046 (Thrombin 1536 HTS; hits were confirmed in this assay)]; type: functional
# fMet-Leu-Phe receptor = target: T3, fMet-Leu-Phe receptor (Homo sapiens, UniProt P21462); experiment: formyl peptide receptor binders – dose response (AID 519); type: functional
# T3 sequence (P21462 whole entry): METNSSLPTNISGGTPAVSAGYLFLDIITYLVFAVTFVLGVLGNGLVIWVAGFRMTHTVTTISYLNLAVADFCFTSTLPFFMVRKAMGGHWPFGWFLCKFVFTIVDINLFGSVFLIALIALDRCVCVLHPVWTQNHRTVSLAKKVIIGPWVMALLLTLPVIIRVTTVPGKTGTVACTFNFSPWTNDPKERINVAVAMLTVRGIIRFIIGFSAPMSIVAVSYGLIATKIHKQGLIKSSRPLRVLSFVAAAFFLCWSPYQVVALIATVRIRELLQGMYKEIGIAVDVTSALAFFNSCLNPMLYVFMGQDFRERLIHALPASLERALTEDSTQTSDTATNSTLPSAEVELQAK
# HEK293 [16] = experiment: NOD2 signaling inhibitors in MDP-stimulated cells, cell-based, uHTS, luminescence (AID 2001); type: functional; settings: Homo sapiens
# HEK293 [17] = experiment: cells; type: functional, cell-based; settings: Homo sapiens
# Streptokinase A = target: T4, Streptokinase A (Streptococcus pyogenes serotype M1, UniProt P10520); experiment: viability-normalized secreted streptokinase activity reduction – plasminogen activation absorbance, OD405, dose response (AID 1914); type: functional, Streptococcus pyogenes M1 GAS;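 further: secreted streptokinase activity via plasminogen activation per viability signal from cell pellet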
# T4 sequence (P10520 whole entry): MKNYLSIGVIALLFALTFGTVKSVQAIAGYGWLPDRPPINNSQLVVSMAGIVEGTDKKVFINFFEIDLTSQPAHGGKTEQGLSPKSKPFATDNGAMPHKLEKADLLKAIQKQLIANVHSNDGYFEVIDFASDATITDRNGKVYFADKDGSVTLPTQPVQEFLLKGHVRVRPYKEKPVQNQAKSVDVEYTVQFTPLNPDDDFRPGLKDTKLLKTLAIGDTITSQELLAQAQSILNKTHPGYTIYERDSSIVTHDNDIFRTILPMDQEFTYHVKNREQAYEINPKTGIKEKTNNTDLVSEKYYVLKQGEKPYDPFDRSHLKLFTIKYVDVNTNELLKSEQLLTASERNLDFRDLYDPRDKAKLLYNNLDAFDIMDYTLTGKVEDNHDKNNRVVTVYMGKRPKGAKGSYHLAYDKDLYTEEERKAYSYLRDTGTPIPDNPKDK
# HEK293 [18] = experiment: inhibition of NOD1-driven NF-kB reporter – cell-based, luminescence, uHTS, primary screen (AID 1578); type: functional; settings: Homo sapiens
# Beta-galactosidase = Beta-galactosidase (Escherichia coli, UniProt Q8VNN2); experiment: detection-enzyme interference by beta-gal modulators – biochemical, E. coli enzyme, set 3, artefact control for CCR6 antagonist project, dose response (AID 504712); type: functional
# HEK293 [19] = experiment: cells; type: functional, cell-based; settings: Homo sapiens; remark: listed apart in the source
# [20] = viability loss in THP-1 monocytes – THP-1 cells, cytotoxicity control for Vif-APOBEC3G degradation inhibitor project, dose response (AID 1117359); type: functional; settings: THP-1
# [21] = A549 cell cytotoxicity, dose response, cytotoxicity control, plate reader, cherry-pick, antagonist series (AID 743412); type: functional, cell-based
# [22] = blockade of melanocortin 4 receptor signaling – cell-based, plate reader, cherry pick, counter-screen for LGR2 antagonist project, dose response (AID 743444); type: functional;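 further: transfected HEK 293 cells stimulated with alpha-MSH peptide; potency of inhibitors of the alpha-MSH evoked signal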
# [23] = toxicity toward HepG2 liver cells – cell-based, plate reader, cherry-pick, antagonist series, cytotoxicity control, dose response (AID 743416); type: functional
# [24] = blockers of bursicon-stimulated LGR2 cAMP reporter – cell-based, HEK293, CRE-luciferase reporter, cherry pick, set 2, dose response (AID 743343); type: functional;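 further: transfected cells were stimulated with diluted bursicon conditioned medium after compound addition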
# [25] = growth inhibition of PfATP4-mutant resistant parasites – NITD609-resistant line, SYBR Green, dry powder, dose response (AID 1159571); type: functional, cell-based;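 further: parasites synchronized at ring stage by sorbitol before testing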
# [26] = growth inhibition of yeast DHODH-expressing 3D7 parasites – SYBR Green, dry powder samples, dose response (AID 1159570); type: functional, cell-based;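 further: parasite growth measured after 72 hours of compound exposure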
# [27] = P. falciparum Dd2 growth inhibitors, dose response, SYBR Green, cherry-picked samples (AID 1159567); type: functional, cell-based
# [28] = toxicity to human HepG2 hepatoma cells – cell-based, plate reader, dry powder samples, cytotoxicity control, dose response (AID 1159569); type: functional;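 further: inhibitor potency with signal falling toward the positive control level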
# [29] = Dd2 malaria parasite growth inhibition potency – SYBR Green, dry powder samples, dose response (AID 1159566); type: functional, cell-based;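 further: potency for growth inhibition with lower SYBR green DNA signal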
# Chain of Beta-galactosidase (Q8VNN2 whole entry): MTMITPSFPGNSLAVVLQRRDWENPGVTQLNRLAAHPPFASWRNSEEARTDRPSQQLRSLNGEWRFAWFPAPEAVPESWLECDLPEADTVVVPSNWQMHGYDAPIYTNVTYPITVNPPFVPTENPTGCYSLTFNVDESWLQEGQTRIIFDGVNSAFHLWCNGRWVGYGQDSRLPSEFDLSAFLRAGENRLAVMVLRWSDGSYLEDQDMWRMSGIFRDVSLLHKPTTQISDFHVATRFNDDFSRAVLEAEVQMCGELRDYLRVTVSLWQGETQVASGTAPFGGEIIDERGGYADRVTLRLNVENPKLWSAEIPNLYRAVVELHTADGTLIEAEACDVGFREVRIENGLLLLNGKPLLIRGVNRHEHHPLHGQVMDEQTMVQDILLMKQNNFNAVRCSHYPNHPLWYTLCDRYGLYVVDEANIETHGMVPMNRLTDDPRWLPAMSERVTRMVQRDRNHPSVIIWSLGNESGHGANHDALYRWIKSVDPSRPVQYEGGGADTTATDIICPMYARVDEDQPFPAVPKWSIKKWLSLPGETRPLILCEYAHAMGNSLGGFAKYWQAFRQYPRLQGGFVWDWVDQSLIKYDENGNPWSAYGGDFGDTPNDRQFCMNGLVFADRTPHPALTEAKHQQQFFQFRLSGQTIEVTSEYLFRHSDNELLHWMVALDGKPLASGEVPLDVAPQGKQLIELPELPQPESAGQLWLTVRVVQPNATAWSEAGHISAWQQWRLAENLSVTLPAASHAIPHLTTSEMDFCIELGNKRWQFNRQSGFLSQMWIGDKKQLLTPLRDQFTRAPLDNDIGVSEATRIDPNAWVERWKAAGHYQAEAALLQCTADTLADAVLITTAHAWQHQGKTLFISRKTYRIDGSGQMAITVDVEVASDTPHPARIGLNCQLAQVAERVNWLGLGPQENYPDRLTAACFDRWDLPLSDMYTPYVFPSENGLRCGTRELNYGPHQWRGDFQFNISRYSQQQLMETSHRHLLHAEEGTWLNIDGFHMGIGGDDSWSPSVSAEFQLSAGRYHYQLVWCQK
# Chain of Luciferin 4-monooxygenase (P08659 whole entry): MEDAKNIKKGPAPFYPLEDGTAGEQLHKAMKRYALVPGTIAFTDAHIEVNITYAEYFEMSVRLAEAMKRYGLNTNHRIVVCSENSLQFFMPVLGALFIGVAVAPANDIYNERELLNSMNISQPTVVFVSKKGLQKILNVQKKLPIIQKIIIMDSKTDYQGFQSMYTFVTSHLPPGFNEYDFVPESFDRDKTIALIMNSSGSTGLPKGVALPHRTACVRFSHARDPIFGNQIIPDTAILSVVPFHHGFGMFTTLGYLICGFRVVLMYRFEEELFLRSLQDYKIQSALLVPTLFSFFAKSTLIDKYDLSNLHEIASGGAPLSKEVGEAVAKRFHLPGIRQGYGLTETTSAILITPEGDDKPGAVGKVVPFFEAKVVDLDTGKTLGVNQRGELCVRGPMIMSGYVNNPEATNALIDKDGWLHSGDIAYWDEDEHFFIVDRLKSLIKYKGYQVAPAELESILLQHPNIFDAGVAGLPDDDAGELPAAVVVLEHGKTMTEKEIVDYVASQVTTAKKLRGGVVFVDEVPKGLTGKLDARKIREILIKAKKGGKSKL
# Chain of Steroidogenic factor 1 (Q13285 whole entry): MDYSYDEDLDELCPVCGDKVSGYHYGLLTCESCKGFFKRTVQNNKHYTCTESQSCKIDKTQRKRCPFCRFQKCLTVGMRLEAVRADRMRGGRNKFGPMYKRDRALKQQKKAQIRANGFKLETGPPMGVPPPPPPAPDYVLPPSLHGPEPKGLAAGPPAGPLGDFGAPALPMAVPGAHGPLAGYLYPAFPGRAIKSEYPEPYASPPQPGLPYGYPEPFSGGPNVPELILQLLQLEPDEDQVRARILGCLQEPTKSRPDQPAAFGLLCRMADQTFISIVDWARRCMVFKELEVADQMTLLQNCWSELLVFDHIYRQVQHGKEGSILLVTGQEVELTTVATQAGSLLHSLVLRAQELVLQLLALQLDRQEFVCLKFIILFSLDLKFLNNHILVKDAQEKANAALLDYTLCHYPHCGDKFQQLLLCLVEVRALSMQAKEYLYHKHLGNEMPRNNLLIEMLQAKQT
# Chain of Nuclear receptor subfamily 5 group A member 2 (O00482 whole entry): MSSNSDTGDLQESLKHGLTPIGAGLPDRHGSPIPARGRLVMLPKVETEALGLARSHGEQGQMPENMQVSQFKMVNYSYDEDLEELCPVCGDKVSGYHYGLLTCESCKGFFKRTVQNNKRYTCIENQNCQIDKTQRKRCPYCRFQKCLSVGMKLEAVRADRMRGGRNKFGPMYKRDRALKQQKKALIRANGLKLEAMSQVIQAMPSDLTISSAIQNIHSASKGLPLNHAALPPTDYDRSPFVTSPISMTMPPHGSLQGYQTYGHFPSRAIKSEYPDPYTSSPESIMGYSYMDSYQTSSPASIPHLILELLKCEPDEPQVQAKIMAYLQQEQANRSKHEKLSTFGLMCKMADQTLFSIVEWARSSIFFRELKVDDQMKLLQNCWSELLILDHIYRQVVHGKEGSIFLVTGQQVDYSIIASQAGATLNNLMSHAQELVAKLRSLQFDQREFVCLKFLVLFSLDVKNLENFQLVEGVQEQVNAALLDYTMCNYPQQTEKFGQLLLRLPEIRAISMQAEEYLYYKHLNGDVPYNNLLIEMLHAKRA
smiles,measurement,setting,value
Cc1onc(-c2cccc(Cl)c2Cl)c1C(=O)ON=C(N)c1ccc([N+](=O)[O-])o1,IC50,[1],0.198 µM (active)
same,EC50,[2],< 0.1 µM (active)
same,EC50,cells [3],0.011 µM (active)
same,IC50,[4],35.9 µM (inactive)
same,EC50,[5],11.6 µM (active)
same,IC50,Steroidogenic factor 1,0.0492 µM (active)
CCC(=O)Oc1ccc(-c2nc(-c3cccnc3)no2)cc1,EC50,[6],0.435 µM (active)
same,EC50,Streptococcus,9.17 µM (active)
same,IC50,[7],> 83.3 µM (inactive)
same,IC50,[8],28.8 µM (inactive)
same,EC50,[9],7.51 µM (active)
same,EC50,[10],4.33 µM (active)
CCc1ccc(CNCCc2ccc(F)cc2)cc1,EC50,[2],< 0.1 µM (active)
same,EC50,cells [3],0.043 µM (active)
same,EC50,[5],> 30 µM (not active)
S=C(NCCc1ccccc1)Nc1cccc2cnccc12,IC50,Galanin receptor type 3,1.66 µM (active)
same,AC50,[11],1.05 µM (active)
same,AC50,[12],0.922 µM (active)
same,EC50,cells [13],> 29.9 µM (inactive)
same,IC50,[14],7.44 µM (active)
same,AC50,[15],2.49 µM (active)
COc1ccc(S(=O)(=O)NC(C)C(=O)Nc2cccc(C(C)=O)c2)cc1 (stereo unspecified),IC50,Prothrombin,> 50 µM (not active)
same,Ki,fMet-Leu-Phe receptor,> 66.7 µM (inactive)
COc1ccc2nc(Nc3nc(C)c(C(C)=O)s3)sc2c1,IC50,HEK293 [16],8.11 µM (inactive)
same,IC50,HEK293 [17],> 20 µM (inactive)
same,EC50,Streptokinase A,> 150 µM (not active)
same,Ki,fMet-Leu-Phe receptor,> 66.7 µM (inactive)
same,EC50,Streptococcus,17.8 µM (active)
same,EC50,HEK293 [18],14.3 µM (active)
same,IC50,Beta-galactosidase,> 66.6 µM (inactive)
same,EC50,[9],3.37 µM (active)
O=C(Nc1ccncc1)Nc1ccc(Br)cc1Cl,EC50,[2],< 0.1 µM (active)
same,EC50,cells [3],0.075 µM (active)
same,EC50,[5],> 60 µM (not active)
COC(=O)C1(S(=O)(=O)c2cccc3nsnc23)CC1,Ki,fMet-Leu-Phe receptor,> 66.7 µM (inactive)
Cn1ccnc1C(O)c1ccco1 (stereo unspecified),IC50,[7],> 83.3 µM (inactive)
same,IC50,[8],> 109 µM (inactive)
O=C(c1cc(COc2ccc(F)cc2F)on1)N1CCN(C2CCCC2)C(=O)C1,CC50,[20],> 40 µM (active)
COc1cccc(OC)c1OCCCCN1CCC(Cc2ccccc2)CC1,IC50,[7],> 83.3 µM (inactive)
same,IC50,[8],> 109 µM (inactive)
O=[N+]([O-])c1cc(-c2nc3nc4ccccc4nc3n2CCc2ccccc2)cc([N+](=O)[O-])c1,EC50,[2],< 0.1 µM (active)
same,EC50,cells [3],0.273 µM (active)
same,EC50,[5],> 60 µM (not active)
Cc1ccnc(Nc2nc(-c3sc(C)nc3C)cs2)c1,IC50,Galanin receptor type 3,> 30 µM (inactive)
same,AC50,[21],25.3 µM (active)
same,AC50,[22],33.5 µM (active)
same,AC50,[23],10.4 µM (active)
same,AC50,[24],17.6 µM (active)
same,EC50,cells [13],> 30 µM (inactive)
same,IC50,[14],12.6 µM (inactive)
COc1cccc(NC(=O)N(C)C[C@@H]2Oc3cc(C#Cc4ccc(F)cc4)ccc3S(=O)(=O)N([C@H](C)CO)C[C@@H]2C)c1,AC50,[25],0.95 µM (active)
same,AC50,[26],1.17 µM (active)
same,AC50,[27],1.63 µM (active)
same,AC50,[28],> 100 µM (inactive)
same,AC50,[29],0.815 µM (active)
C[C@@H]1CN([C@@H](C)CO)S(=O)(=O)c2ccc(/C=C/c3ccccc3)cc2O[C@H]1CN(C)C(=O)C1CC1,AC50,[25],2.64 µM (active)
same,AC50,[26],3.43 µM (active)
same,AC50,[27],2.37 µM (active)
same,AC50,[28],79.2 µM (active)
same,AC50,[29],2.18 µM (active)
